Results on 20 compounds are retold here after ChEMBL document CHEMBL4400577, “Fragment-based Discovery of a Small-Molecule Protein Kinase C-iota Inhibitor Binding Post-kinase Domain Residues” (ACS Med Chem Lett, 2019).

Values after ≈ are worked out from the molar mass of the structure shown.

What is called IC50 is the point on the concentration scale where inhibition reaches its midpoint. What is called GI50 is the concentration that inhibits growth by half. The Papp A→B is how fast a substance crosses the layer from the apical side. Lower therefore signals poor permeation. As a reminder, the solubility is how much of the substance goes into solution per volume. Read a low solubility as a poorly soluble substance.

Series [1] addresses T1, Protein kinase C iota type (Homo sapiens, UniProt P41743).
T1 sequence (P41743 whole entry): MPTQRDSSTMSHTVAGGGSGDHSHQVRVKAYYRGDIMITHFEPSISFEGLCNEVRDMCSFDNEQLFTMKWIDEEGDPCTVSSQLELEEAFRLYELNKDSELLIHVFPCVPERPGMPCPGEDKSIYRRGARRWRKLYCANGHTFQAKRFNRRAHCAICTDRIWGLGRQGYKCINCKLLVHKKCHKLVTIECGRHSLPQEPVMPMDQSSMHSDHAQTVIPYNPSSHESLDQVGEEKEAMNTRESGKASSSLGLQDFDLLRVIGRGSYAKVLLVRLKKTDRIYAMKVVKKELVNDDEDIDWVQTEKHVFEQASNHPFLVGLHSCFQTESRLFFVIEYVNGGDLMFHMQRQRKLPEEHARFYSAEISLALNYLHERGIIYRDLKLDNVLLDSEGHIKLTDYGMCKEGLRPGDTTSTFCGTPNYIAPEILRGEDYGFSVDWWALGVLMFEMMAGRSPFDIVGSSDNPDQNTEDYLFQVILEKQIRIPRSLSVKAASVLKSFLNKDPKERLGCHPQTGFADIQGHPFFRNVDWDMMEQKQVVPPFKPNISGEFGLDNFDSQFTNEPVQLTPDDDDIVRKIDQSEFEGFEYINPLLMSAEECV
The series can be described thus: Inhibition of recombinant human full length N-terminal GST-fused PKCi (1 to 587 residues) expressed in baculovirus expression system using 5-FAM-RFARKGSLRQKNV as substrate measured after 60 mins by caliper microfluidic mobility shift assay.

The subject of the next series is Huh-7. Briefly: Antiproliferative activity against human HuH7 cells assessed as cell growth inhibition measured after 72 hrs by CellTiter-Glo luminescent assay. In kind it is functional. To be noted: Huh-7, 72 h.
Series [2] in a line: Permeability across apical to basolateral side in human Caco2 cells. To be noted: Caco-2. In kind it is ADME, cell-based. For orientation: Caco-2 monolayers are a common model of the intestinal barrier.
Series [3] can be described thus: Solubility of the compound at pH 7.4. In kind it is physicochemical. The following applies: buffer.
Series [4] can be described thus: Clearance in human liver microsomes. In kind it is ADME, Microsome. The following applies: read-out: CLH.
Series [5] can be described thus: Clearance in mouse liver microsomes. In kind it is ADME, Microsome. The following applies: read-out: CLH.

On to `Nc1nccnc1C(=O)Nc1ccncc1Br`, for which the IC50 in series [1] is over 384 µM.
In the case of `Nc1nccnc1C(=O)Nc1ccnc(Br)c1`, in series [1], the IC50 is over 384 µM.
For `N[C@H](CNc1nc(-c2ccncc2)nc2sc3c(c12)CCCC3)Cc1ccccc1`, the GI50 in the series on Huh-7 stood at 3.1 µM.
With `Nc1nccnc1C(=O)Nc1ccc(O)cc1`, the half-maximal inhibitory concentration (IC50) in series [1] came to 76 µM.
Consider `Cc1cc(NC(=O)c2nccnc2N)cc(C)n1`, for which, in series [1], the IC50 stood at 263 µM.
As to `Nc1nccnc1C(=O)Nc1cccc(C2CC2)c1`, the IC50 in series [1] is 42.2 µM.
In the case of `Nc1nccnc1C(=O)Nc1ccc2[nH]ccc2c1`, the IC50 in series [1] came to 34 µM.
Turning to `Nc1ncc(Br)cc1C(=O)Nc1ccncc1`, in series [1], the 50% inhibitory concentration (IC50) is over 384 µM.
Turning to `Nc1ncc(-c2ccccc2)cc1C(=O)Nc1ccncc1`, in series [1], the IC50 was found to be 32 µM.
On to `Nc1nccnc1C(=O)NCc1ccncc1`, for which the IC50 in series [1] is over 384 µM.
On to `Nc1nccnc1C(=O)Nc1cccnc1`, for which, in series [1], the IC50 was 77 µM.
Regarding `Nc1nccnc1C(=O)Nc1ccncc1`, the IC50 in series [1] turned out to be 23 µM.
The same measure, in the same setting: as for `NCc1cccc(-c2cnc(N)c(C(=O)Nc3ccncc3)c2)c1`, the figure is 0.71 µM; as for `Nc1nccnc1C(=O)Nc1ccnc2[nH]ccc12`, over 384 µM.
In series [2], `Nc1ncc(-c2cccc(N3CCNCC3)c2)cc1C(=O)Nc1ccncc1` gave a Papp A→B of 0.28 ×10⁻⁶ cm/s. For the same compound, the IC50 in series [1] turned out to be 0.34 µM. For the same compound, the concentration in solution in series [3] (solubility) was 164 µg/mL (≈ 438 µM). Also, the GI50 in the series with Huh-7 came to 11.3 µM. The microsomal CLint in series [4] was 5.1 µL/min/mg; in series [5], 71 µL/min/mg.
For `NC(=O)c1cccc(-c2cnc(N)c(C(=O)Nc3ccncc3)c2)c1`, the IC50 in series [1] was over 384 µM.
As to `CC(C)(C)c1cc(NC(=O)c2nccnc2N)ccn1`, in series [1], the IC50 amounted to 24 µM.
`Nc1ncccc1C(=O)Nc1ccncc1`: the IC50 in series [1] stood at 22 µM.
Turning to `CCc1cc(NC(=O)c2nccnc2N)ccn1`, the IC50 in series [1] was 19.6 µM.
On the same count and under the same terms, the result for `Nc1ncc(-c2cccc(N3CCNCC3)c2)nc1C(=O)Nc1ccncc1` reads 0.27 µM.
